# In ChEMBL document CHEMBL1143455 (Bioorg Med Chem Lett, 2005):
# pIC50: −log10 of the molar value.
# Assays:
# [1] = biological target: T1, Prostaglandin G/H synthase 2 (Mus musculus, UniProt Q05769); assay: Tested for prostaglandin E2 production as a function of COX-2 inhibition using endotoxin-treated murine RAW 264.7 macrophages; format: functional
# T1 sequence (Q05769 whole entry): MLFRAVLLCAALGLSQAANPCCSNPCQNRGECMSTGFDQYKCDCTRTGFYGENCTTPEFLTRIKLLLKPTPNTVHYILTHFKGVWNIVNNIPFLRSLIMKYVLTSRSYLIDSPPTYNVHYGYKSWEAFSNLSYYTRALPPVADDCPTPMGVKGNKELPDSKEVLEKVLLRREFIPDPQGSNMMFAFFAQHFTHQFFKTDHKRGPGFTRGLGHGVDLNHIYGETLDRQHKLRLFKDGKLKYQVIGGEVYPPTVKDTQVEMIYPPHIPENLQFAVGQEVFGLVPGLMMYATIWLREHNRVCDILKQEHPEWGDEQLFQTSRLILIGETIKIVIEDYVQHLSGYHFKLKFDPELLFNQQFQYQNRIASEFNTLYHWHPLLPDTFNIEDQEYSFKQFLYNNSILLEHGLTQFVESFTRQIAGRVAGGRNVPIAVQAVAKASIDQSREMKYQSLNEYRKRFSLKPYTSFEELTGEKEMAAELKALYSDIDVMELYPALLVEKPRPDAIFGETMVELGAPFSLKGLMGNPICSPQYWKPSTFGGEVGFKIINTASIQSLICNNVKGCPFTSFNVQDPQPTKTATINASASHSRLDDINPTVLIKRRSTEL
# [2] = biological target: T2, Prostaglandin G/H synthase 2 (Homo sapiens, UniProt P35354)
# T2 sequence (P35354 whole entry): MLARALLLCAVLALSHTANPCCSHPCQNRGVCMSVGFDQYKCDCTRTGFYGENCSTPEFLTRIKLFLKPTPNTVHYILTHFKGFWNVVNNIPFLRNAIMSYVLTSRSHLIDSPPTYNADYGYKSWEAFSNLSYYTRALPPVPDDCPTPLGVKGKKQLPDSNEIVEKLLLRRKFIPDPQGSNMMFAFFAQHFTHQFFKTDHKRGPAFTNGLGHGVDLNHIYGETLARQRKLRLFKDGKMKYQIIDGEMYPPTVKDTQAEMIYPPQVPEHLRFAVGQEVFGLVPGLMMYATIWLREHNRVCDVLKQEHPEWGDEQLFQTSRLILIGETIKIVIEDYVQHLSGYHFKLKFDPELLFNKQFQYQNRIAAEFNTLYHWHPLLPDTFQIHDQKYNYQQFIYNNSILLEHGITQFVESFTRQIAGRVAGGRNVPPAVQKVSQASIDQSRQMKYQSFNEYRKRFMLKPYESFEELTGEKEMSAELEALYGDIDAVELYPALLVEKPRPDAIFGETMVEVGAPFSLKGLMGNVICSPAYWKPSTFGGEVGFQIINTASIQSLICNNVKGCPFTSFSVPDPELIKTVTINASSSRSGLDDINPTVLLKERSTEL
# Description: Inhibitory activity against human recombinant cyclooxygenase 2
pIC50 [2],Compound,pIC50 [1]
–,Cc1onc(-c2ccc(F)cc2)c1-c1ccc(S(N)(=O)=O)cc1,8.70
8.10,NS(=O)(=O)c1ccc(-c2c(-c3ccccc3)noc2CCF)cc1,8.70
–,NS(=O)(=O)c1ccc(-c2c(-c3ccccc3)noc2CF)cc1,8.70
–,Cc1onc(-c2ccccc2)c1-c1ccc(S(N)(=O)=O)c(F)c1,8.70
